This passage reports Activity results from ChEMBL document CHEMBL1148356, “Synthesis and biological evaluation of 3-heterocyclyl-7,8,9,10-tetrahydro-(7,10-ethano)-1,2,4-triazolo[3,4-a]phthalazines and analogues as subtype-selective inverse agonists for the GABA(A)alpha5 benzodiazepine binding site” (J Med Chem, 2004).

This experiment relates to Rattus norvegicus. Briefly: Tested for cognitive performance in rats in delayed matching-to-place version of water maze test at 0.3 mg/kg i.p.; Enhanced performance. The class given is functional, organism-based. Further details: dose 0.3 mg/kg.

Structures are written as SMILES. Activity calls are given as the source filed them. No cut-off for these calls is given here.

With `CC1(C)CC(=O)c2c(SCCO)sc(-c3nccs3)c2C1`, the outcome was Active.
